# From patent publication US20040248919A1, “Fluorinated trienes and their use as rxr modulators” (priority 2001, published 2004)
# Legend:
# [1] = test system: rodent models of NIDDM; experiment: Rodent models of NIDDM; assay type: in vivo
# Excerpt: Rodents that are genetically defective in the leptin pathway are commonly used as animal models of non-insulin dependant diabetes mellitus (NIDDM). db/db mice and ZDF rats develop frank diabetes that progresses to include β-cell failure and the accompanying precipitous drop in plasma insulin levels. […] All three rodent models were used to examine the efficacy of oral dosing with compounds of the invention on diabetes, insulin sensitivity, food consumption and body weight gain.
# Mice (obtained from Jackson Laboratory), ZDF rats (obtained from Genetic Models Inc.) and fa/fa rats (obtained from either Charles River, or Harlan) are maintained on 12-hour light/dark cycle. Mice (age 28-42 days) are caged in groups of 5-6. Rats (age 7 weeks) are housed individually. All animals are allowed ad libitum access to water and food (Purina 5015 for mice and 5008 for rats). Compounds are administered at the specified doses by oral gavage on the morning of each day of any experiment. Blood samples are obtained 3 hours after dosing from fed animals under anesthesia and collected into heparinized capillary tubes from the tail vein.
# [2] = test system: transgenic mice carrying the human apo A-I gene; experiment: Transgenic mice carrying the human apo A-I gene; assay type: in vivo; details: transgenic mouse model
# Excerpt: Mice transgenic for the human apolipoprotein A-I gene (obtained from Jackson Laboratory) are used to evaluate PPARγ mediated effects on high density lipoprotein (HDL) cholesterol. The mice are handled as described above for db/db mice, except that they are fed Purina 5001.
# [3] = test system: db/db mice; experiment: db/db mice, oral dosing; assay type: in vivo, mouse; details: 7 week old db/db mice, 300 mg/kg by daily oral gavage
Structure (SMILES),Blood glucose levels [1],Thyroid hormone axis [1],Triglycerides [1],Triglycerides [2],Plasma glucose [3]
"Cc1cc2c(cc1C1(c3ccc(C(=O)O)cn3)CC1)C(C)(C)CCC2(C)C [LG100268, 6-[1-(3,5,5,8,8-pentamethyl-5,6,7,8-tetrahydronaphthalen-2-yl)cyclopropyl]nicotinic acid]",lower blood glucose levels,suppress the thyroid hormone axis,raise triglycerides,raises triglycerides,
CN(C)C(=N)N=C(N)N [metformin],,,,,lowers plasma glucose
